In patent publication US8680149B2, “1-amino-alkylcyclohexane derivatives for the treatment of mast cell mediated diseases” (Merz Pharma GmbH & Co. KGaA, priority 2008, dated 2014):

Experiments:
[1] = system: human mast cell line HMC-1; test: Mast cell degranulation in vitro: histamine concentration in culture medium by sandwich-ELISA; type: cell-based; settings: for inhibition of cholinergic agonist-induced mast cell degranulation (histamine concentration in culture supernatant): neramexane 10E-6M to 10E-16M added 5 minutes prior to cholinergic stimulus, histamine determined 10 minutes after addition; for induction of mast cell degranulation (histamine concentration in culture supernatant): calcium concentration elevated to 1 mM, histamine 10 minutes after addition; for responsiveness of HMC-1 cells (degranulation) at low calcium: low calcium concentration
Experimental: The human mast cell line HMC-1 is obtained from J. H. Butterfield (Minnesota, USA) and cultured under standard conditions in RPMI Medium 1640 (GIBCO, Karlsruhe, Germany) at 37° C. For functional assays, the calcium concentration of the medium is adjusted to 1 mM.
The Mast cell degranulation is monitored by determination of histamine concentration in the culture medium using a sandwich-ELISA from IBL (Hamburg, Germany).Histamine concentration is determined in untreated cells, medium without cells, HMC-1 cells treated with calcimycin, (a calcium ionophore,used as positive control). Additional controls to check reagibilty of the cells are LPS (lipopolysaccharide) and PMA (phorbol 12-myristate 13-acetate). Histamine concentration is determined 10 minutes after addition of the respective substances. Nicotine and choline are used as stimulus for nAChR, muscarine as stimulus for mAChR, and a combination of acetylcholine and eserine (an acetylcholinesterase inhibitor) is used as pancholinergic stimulus. Neramexane is tested at concentrations ranging from 10E-6M to 10E-16M and is added to the culture medium 5 minutes prior to the respective cholinergic stimulus. All experiments are performed twice in quadruplicate.
Statistical analysis is performed using the Wilcoxon sum-of-ranks test (available on www.statpages.net).
In order to determine the sensitivity of mast cells towards cholinergic signals, the HMC-1 cell line cultured under standard conditions with either low or high calcium concentrations is used.

[2] = target: α9α10 nicotinic Acetylcholine Receptor (Rattus norvegicus, UniProt P43144+Q9JLB5); settings: cited from earlier work
α9α10 nicotinic Acetylcholine Receptor, sequence (P43144 26-479): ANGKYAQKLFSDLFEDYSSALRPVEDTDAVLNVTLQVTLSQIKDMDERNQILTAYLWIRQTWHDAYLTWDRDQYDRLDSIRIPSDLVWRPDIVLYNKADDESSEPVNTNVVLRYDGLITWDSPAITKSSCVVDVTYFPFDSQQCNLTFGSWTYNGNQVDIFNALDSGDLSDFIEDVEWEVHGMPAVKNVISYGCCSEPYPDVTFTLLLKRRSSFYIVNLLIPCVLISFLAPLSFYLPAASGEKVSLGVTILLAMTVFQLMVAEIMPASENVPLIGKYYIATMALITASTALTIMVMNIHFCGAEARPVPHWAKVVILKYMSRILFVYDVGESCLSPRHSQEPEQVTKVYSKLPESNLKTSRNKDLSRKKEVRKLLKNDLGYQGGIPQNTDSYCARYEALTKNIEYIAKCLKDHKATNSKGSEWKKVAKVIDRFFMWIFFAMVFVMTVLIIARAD
α9α10 nicotinic Acetylcholine Receptor, sequence (Q9JLB5 25-447): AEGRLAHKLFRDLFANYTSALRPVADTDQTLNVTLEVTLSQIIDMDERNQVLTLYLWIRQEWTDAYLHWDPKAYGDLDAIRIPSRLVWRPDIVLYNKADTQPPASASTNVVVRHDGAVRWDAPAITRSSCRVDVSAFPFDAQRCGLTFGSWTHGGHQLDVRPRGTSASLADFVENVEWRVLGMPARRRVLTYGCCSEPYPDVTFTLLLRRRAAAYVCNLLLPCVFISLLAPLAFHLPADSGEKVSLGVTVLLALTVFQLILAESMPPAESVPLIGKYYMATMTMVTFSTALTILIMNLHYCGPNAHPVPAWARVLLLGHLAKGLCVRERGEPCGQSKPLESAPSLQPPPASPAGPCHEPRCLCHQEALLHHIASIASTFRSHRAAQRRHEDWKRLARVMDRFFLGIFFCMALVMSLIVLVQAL

[3] = neramexane at concentrations higher than 1 mM

| SMILES | inhibition of cholinergic agonist-induced mast cell degranulation (histamine concentration in culture supernatant) ([1]; HMC-1 cells, calcium 1 mM) | induction of mast cell degranulation (histamine concentration in culture supernatant) ([1]; HMC-1 cells) | responsiveness of HMC-1 cells (degranulation) at low calcium [1] | further results |
| --- | --- | --- | --- | --- |
| CC1(C)CC(C)(C)CC(C)(N)C1.CS(=O)(=O)O [Neramexane-mesylate] | inhibits the observed effects in equimolar concentrations and, dose-dependently, even in lower concentrations than the respective agonist | – | – | – |
| C[C@@H]1O[C@H](C[N+](C)(C)C)C[C@H]1O [muscarine] | – | No histamine liberation | – | – |
| CNc1ccc2oc(C[C@H]3O[C@@]4(CC[C@H]3C)O[C@H]([C@H](C)C(=O)c3ccc[nH]3)[C@H](C)C[C@H]4C)nc2c1C(=O)O [calcimycine, calcimycin] | – | – | unresponsive | – |
| CN1CCCC1c1cccnc1 (centres unmarked) [nicotine] | – | dose-dependently produce mast cell degranulation | unresponsive | concentration sufficient to induce complete degranulation ([1]; HMC-1 cells, calcium 1 mM): Nanomolar concentrations |
| CC1(C)CC(C)(C)CC(C)(N)C1 [Neramexane, 1-amino-1,3,3,5,5-pentamethylcyclohexane] | dose-dependent inhibitory effect | – | – | blockade of α9α10 nicotinic Acetylcholine Receptor [2]: blocker; mode of antagonism at α9α10 nicotinic Acetylcholine Receptor [2]: non-competitive antagonist; dependence of blockage on membrane potential [2, 3]: only slightly dependent on the membrane potential; effect on rate of desensitization [2, 3]: not to modify the rate of desensitization |
